Tests used:
CCRF-CEM cells = experiment: MTT cell growth assay, CCRF-CEM cells (GaN-sensitive); assay type: cell-based, human; conditions: for Inhibition of CCRF-CEM cell growth (in words): increasing concentrations, 72 h, MTT, FIG. 2; for IC50: MTT assay, 72 h incubation, read-out: IC50, inhibition of T lymphoma CCRF-CEM cell growth
Protocol: CCRF-CEM cells were obtained from ATCC.
(§1) Mantle cell lymphoma (HBL-2 (Human B-cell lymphoma-derived cell line), Granta, JVM-2, NCEB-1, Z138C) and DoHH2 cell lines were obtained from the British Columbia Cancer Agency. p53 cell lines were obtained from the NCI. Gallium maltolate and gallium nitrate were obtained from Titan Pharmaceuticals Inc. (San Francisco, Calif.) and Genta Incorporated (Berkley Heights, N.J.), respectively. Cell proliferation was measured by MTT assay (Mosmann T. “Rapid colorimetric assay for cellular growth and survival: Application to proliferation and cytotoxicity assays”. J Immunol Methods 1983; 65:55-63, incorporated by reference here in its entirety). Caspase-3 activity was measured by ApoOne assay (Promega, Madison, Wis.). Assays for cellular ^59Fe-transferrin uptake and ^125I-transferrin binding were used as previously described in Chitambar, 1997.
(§2) CCRF-CEM cells were plated at a density of 2×10^5 cells/ml in microwell plates (100 μL cell suspension per well) in the presence of increasing concentrations of gallium maltolate or maltol (subsequently referred to as the additives). After 72 h of incubation, 10 μL MTT (3-(4,5-dimethlythiazol-2-yl)-2,5-diphenyltetrazolium bromide) was added to each well and the incubation continued for 4 h at 37° C. Cells were then solubilized by the addition of 100 μL of 0.4 N HCl in isopropanol to each well and the absorbance of each well was read at 570 nm using a microplate reader. The effect of the additives on cell proliferation was determined by comparing the absorbance from wells containing the additives with the absorbance from wells in which the additives were omitted (decreased absorbance signifies decreased cell proliferation). Cell growth was expressed as a percentage of control (cell growth in the absence of additives). Cell proliferation was assessed after 72 h of incubation with gallium maltolate or maltol.
Cell growth was determined by MTT assay as described in Example 1 above. Values shown are means +/−S.E. (n=4).
To determine the effect of GaM on the growth of gallium nitrate-resistant (GnR) and -sensitive (GnS) cells, cells were plated in microwell plates and incubated with GaM. Cellular proliferation was measured by MTT assay after 72 h incubation with GaM. Values shown are means +/−S.E. (n=4).

caspase-3 [1] = experiment: Caspase-3 activity (apo-One assay) in GnR CCRF-CEM cells; assay type: cell-based, human; conditions: 24 h incubation, FIG. 5D
Protocol: as §1
After the incubation period, caspase-3 activity was measured by apo-One™ assay.

caspase-3 [2] = experiment: Caspase-3 activation (apo-One assay) in HBL-2 cells; assay type: cell-based, human; conditions: for Caspase-3 activity in exposed cells, dose dependence: see FIG. 4
Protocol: as §1
After incubation with these compounds, the cells were analyzed for apoptosis using the commercially available apo-One™ assay that measures caspase-3 activation. Data points are the means and S.E. of an experiment performed in triplicate.

lymphoma cell lines = experiment: Annexin V staining of cells exposed to gallium compounds; assay type: cell-based; conditions: cells exposed to GaN or GaM
[3] = test system: MCL cell lines HBL2, JVM2, Z138C, and Granta; experiment: MTT cell growth assay, mantle cell lymphoma (MCL) cell lines; assay type: cell-based, human; conditions: range over the four cell lines, 72 h, read-out: IC50, growth inhibition of MCL cell lines HBL2, JVM2, Z138C, and Granta
Protocol: Mantle cell lymphoma (HBL-2 (Human B-cell lymphoma-derived cell line), Granta, JVM-2, NCEB-1, Z138C) and DoHH2 cell lines were obtained from the British Columbia Cancer Agency. p53 cell lines were obtained from the NCI. Gallium maltolate and gallium nitrate were obtained from Titan Pharmaceuticals Inc. (San Francisco, Calif.) and Genta Incorporated (Berkley Heights, N.J.), respectively. Cell proliferation was measured by MTT assay (Mosmann T. “Rapid colorimetric assay for cellular growth and survival: Application to proliferation and cytotoxicity assays”. J Immunol Methods 1983; 65:55-63, incorporated by reference here in its entirety). Caspase-3 activity was measured by ApoOne assay (Promega, Madison, Wis.). […]
as §2, with “After 72 h of incubation, 10 μL MTT (3-(4,5-dimethlythiazol-2-yl)-2,5-diphenyltetrazolium bromide) was added to each well and the incubation continued for 4 h at 37° C.” left out, “Cell growth was expressed as a percentage of control (cell growth in the absence of additives). Cell proliferation was assessed after 72 h of incubation with gallium maltolate or maltol.” left out

[4] = test system: GaN-resistant CCRF-CEM cells; experiment: MTT cell growth assay, gallium nitrate-resistant (GnR) CCRF-CEM cells; assay type: cell-based, human
Protocol: (§3) Mantle cell lymphoma (HBL-2 (Human B-cell lymphoma-derived cell line), Granta, JVM-2, NCEB-1, Z138C) and DoHH2 cell lines were obtained from the British Columbia Cancer Agency. p53 cell lines were obtained from the NCI. […] Cell proliferation was measured by MTT assay (Mosmann T. “Rapid colorimetric assay for cellular growth and survival: Application to proliferation and cytotoxicity assays”. J Immunol Methods 1983; 65:55-63, incorporated by reference here in its entirety). Caspase-3 activity was measured by ApoOne assay (Promega, Madison, Wis.). Assays for cellular ^59Fe-transferrin uptake and ^125I-transferrin binding were used as previously described in Chitambar, 1997.
as §2, with “After 72 h of incubation, 10 μL MTT (3-(4,5-dimethlythiazol-2-yl)-2,5-diphenyltetrazolium bromide) was added to each well and the incubation continued for 4 h at 37° C.” left out, “Cell growth was expressed as a percentage of control (cell growth in the absence of additives). Cell proliferation was assessed after 72 h of incubation with gallium maltolate or maltol.” left out

p53 mutant WTK-1 cells = experiment: MTT cell growth assay, p53 mutant WTK-1 cells; assay type: cell-based, human; conditions: 72 h
Protocol: as §3
as §2, with “After 72 h of incubation, 10 μL MTT (3-(4,5-dimethlythiazol-2-yl)-2,5-diphenyltetrazolium bromide) was added to each well and the incubation continued for 4 h at 37° C.” left out, “Cell growth was expressed as a percentage of control (cell growth in the absence of additives). Cell proliferation was assessed after 72 h of incubation with gallium maltolate or maltol.” left out

[5] = test system: transferrin (Tf) receptor; experiment: 125I-transferrin binding assay, cell surface transferrin receptor density in HBL-2 cells; assay type: cell-based, human; conditions: FIG. 8
Protocol: as §1
To determine the mechanism by which GaM acts on cells, cellular transferrin receptor expression was evaluated in HBL-2 cells. The effect of GaM on cellular transferrin receptor expression was determined using a ^125I-transferrin (Tf) binding assay that measures the binding of the ligand Tf to its receptor (TfR). HBL-2 cells were incubated with increasing concentrations of GaM for 24 and 48 h and then analyzed for Tf binding using an established method. The amount of radioactive Tf bound to cellular TfR was calculated using Scatchard analysis.

p53 null HN-32 cells = experiment: MTT cell growth assay, p53 null HN-32 cells; assay type: cell-based, human; conditions: 72 h
Protocol: as §3
as §2, with “After 72 h of incubation, 10 μL MTT (3-(4,5-dimethlythiazol-2-yl)-2,5-diphenyltetrazolium bromide) was added to each well and the incubation continued for 4 h at 37° C.” left out, “Cell growth was expressed as a percentage of control (cell growth in the absence of additives). Cell proliferation was assessed after 72 h of incubation with gallium maltolate or maltol.” left out

HBL-2 cells [6] = experiment: Cellular 59Fe-transferrin (iron) uptake by HBL-2 cells; assay type: cell-based, human; conditions: 24 h, increasing concentrations of GaM, FIG. 7
Protocol: as §1
HBL-2 cells were incubated in complete medium in the presence of increasing concentrations of GaM. Radioiron (^59Fe-transferrin) was added to cells at the start of the incubation. After 24 h, cells were harvested, washed with phosphate buffered saline to remove unincorporated ^59Fe and centrifuged to pellet the cells. ^59Fe radioactivity in the cell pellet was counted in a gamma counter. The results showing that the amount of radioiron taken up by cells decreases with increasing concentrations of GaM are depicted in FIG. 7.

HBL-2 cells [7] = experiment: MTT cell proliferation assay, mantle cell lymphoma HBL-2 cells; assay type: cell-based, human; conditions: 72 h, FIG. 3
Protocol: Mantle cell lymphoma (HBL-2 (Human B-cell lymphoma-derived cell line), Granta, JVM-2, NCEB-1, Z138C) and DoHH2 cell lines were obtained from the British Columbia Cancer Agency. p53 cell lines were obtained from the NCI. […] (San Francisco, Calif.) and Genta Incorporated (Berkley Heights, N.J.), respectively. Cell proliferation was measured by MTT assay (Mosmann T. “Rapid colorimetric assay for cellular growth and survival: Application to proliferation and cytotoxicity assays”. J Immunol Methods 1983; 65:55-63, incorporated by reference here in its entirety). Caspase-3 activity was measured by ApoOne assay (Promega, Madison, Wis.). Assays for cellular ^59Fe-transferrin uptake and ^125I-transferrin binding were used as previously described in Chitambar, 1997. […] Cells were then solubilized by the addition of 100 μL 0.4 N HCl in isopropanol to each well and the absorbance of each well was read at 570 nm using a spectrophotometer. Cell proliferation was measured after a 72 h incubation period. The effect of the additives on cell proliferation was determined by comparing the absorbance from wells with the additives with the absorbance from wells in which the additives were omitted (decreased absorbance signifies decreased cell proliferation). Cell growth was expressed as a percentage of control (cell growth in the absence of additives).

p53 wt TK-6 cells = experiment: MTT cell growth assay, p53 wt TK-6 cells; assay type: cell-based, human; conditions: 72 h
Protocol: as §3
as §2, with “After 72 h of incubation, 10 μL MTT (3-(4,5-dimethlythiazol-2-yl)-2,5-diphenyltetrazolium bromide) was added to each well and the incubation continued for 4 h at 37° C.” left out, “Cell growth was expressed as a percentage of control (cell growth in the absence of additives). Cell proliferation was assessed after 72 h of incubation with gallium maltolate or maltol.” left out

Cc1occc(=O)c1O [Maltol, maltol, reference compound]
Inhibition of CCRF-CEM cell growth (in words) (CCRF-CEM cells): did not inhibit cell growth

O=[N+]([O-])[O-].O=[N+]([O-])[O-].O=[N+]([O-])[O-].[Ga+3] [GaN, gallium nitrate, reference compound]
Caspase-3 activation in GnR cells (caspase-3 [1]): not | IC50 (CCRF-CEM cells): 103 µM | Caspase-3 activity in exposed cells, dose dependence (caspase-3 [2]): dose-dependent increase | Annexin V staining (lymphoma cell lines): increase | IC50 [3]: 45 to 400 µM

Cc1occc(=O)c1[O-].Cc1occc(=O)c1[O-].Cc1occc(=O)c1[O-].[Ga+3] [GaM, gallium maltolate]
Proliferation of GnR cells resistant to GaN (in words) ([4]; FIG. 5): inhibits proliferation | IC50 ([4]; MTT assay, 72 h incubation, read-out: IC50, growth inhibition of GaN-resistant cells): 70 µM | IC50 (p53 mutant WTK-1 cells): 45 µM | Growth of p53 mutant WTK-1 cells (in words) (p53 mutant WTK-1 cells; FIG. 6): inhibited to a similar extent | Number of TfRs on the cell surface ([5]; 24 h, 25 and 50 μM GaM): increase the number of TfRs | Number of TfRs on the cell surface ([5]; 48 h, 25 μM GaM): increases TfR number | Caspase-3 activation in GnR cells (caspase-3 [1]): activates caspase-3 | IC50 (CCRF-CEM cells): 29 µM | Inhibition of CCRF-CEM cell growth (in words) (CCRF-CEM cells): inhibited | IC50 (p53 null HN-32 cells): 45 µM | Growth of p53 null HN-32 cells (in words) (p53 null HN-32 cells; FIG. 6): inhibited to a similar extent | Amount of radioiron (59Fe) taken up by cells (HBL-2 cells [6]): decreases | Inhibition of HBL-2 cell proliferation, GaM compared with GaN (in words) (HBL-2 cells [7]): much lower concentrations of gallium were required to inhibit cell proliferation | Caspase-3 activation in HBL-2 cells (caspase-3 [2]; 48 h incubation, similar concentrations of GaM and GaN, FIG. 4): activated | Caspase-3 activity in exposed cells, dose dependence (caspase-3 [2]): dose-dependent increase | Annexin V staining (lymphoma cell lines): increase | IC50 (p53 wt TK-6 cells): 18 µM | Growth of p53 wt TK-6 cells (in words) (p53 wt TK-6 cells; FIG. 6): inhibited to a similar extent | IC50 [3]: 15 to 30 µM

From US20070231407A1, “Method of treating gallium-nitrate resistant tumors using gallium-containing compounds” (priority 2006, published 2007)
